Test results as given in article PMC10762035, “Molecular basis of human trace amine-associated receptor 1 activation” (Nature Communications, 2024).
Substitutions are numbered along the chain they refer to. Values joined by “and” are separate entries in the source; they are usually repeats but may differ in a detail not shown here. Identical values can stand only once. Like-named read-outs stand apart in the source and are kept apart here.

Legend:
Format in all cases: cell-based
hTA1 R83H = biological target: T1, hTA1 R83H (Homo sapiens, UniProt Q96RJ0, R83H); experiment: GloSensor cAMP accumulation assay, R83H mutant;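 also: cells transiently co-expressing hTA1 and a cAMP GloSensor, luminescence read 30 min after agonist addition at room temperature, concentration–response fitted by non-linear regression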
T1 construct: expressed in transfected cells; host or cells: HEK293T
T1 sequence (Q96RJ0 1-339 R83H): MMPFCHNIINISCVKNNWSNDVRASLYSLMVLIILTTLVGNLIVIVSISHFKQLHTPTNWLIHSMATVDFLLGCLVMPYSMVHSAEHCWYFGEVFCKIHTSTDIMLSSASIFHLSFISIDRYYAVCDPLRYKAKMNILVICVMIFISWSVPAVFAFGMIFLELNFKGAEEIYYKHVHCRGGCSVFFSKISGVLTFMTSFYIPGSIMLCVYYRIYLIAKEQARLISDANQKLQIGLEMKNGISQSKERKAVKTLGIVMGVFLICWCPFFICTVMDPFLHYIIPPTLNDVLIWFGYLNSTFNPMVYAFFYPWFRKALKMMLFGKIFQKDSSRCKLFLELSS

hTA1 T271N = biological target: T2, hTA1 T271N (Homo sapiens, UniProt Q96RJ0, T271N); experiment: GloSensor cAMP accumulation assay, T271N mutant; conditions: for Emax: T271N
T2 construct: expressed in transfected cells; host or cells: HEK293T
T2 sequence (Q96RJ0 1-339 T271N): T1 sequence (Q96RJ0 1-339 R83H) with H83R, T271N

hTA1 V184P = biological target: T3, hTA1 V184P (Homo sapiens, UniProt Q96RJ0, V184P); experiment: GloSensor cAMP accumulation assay, V184P mutant; conditions: for cAMP accumulation response, single replicate values (source data, Supplementary Figure 5): hTA1 V184P (N=2), log[Compound]
T3 construct: expressed in transfected cells; host or cells: HEK293T
T3 sequence (Q96RJ0 1-339 V184P): T1 sequence (Q96RJ0 1-339 R83H) with H83R, V184P

hTA1 C5S = biological target: T4, hTA1 C5S (Homo sapiens, UniProt Q96RJ0, C5S); experiment: GloSensor cAMP accumulation assay, C5S mutant; conditions: for C5S - Normalized Luminescence Counts (N=2): log[Compound], single wells
T4 construct: expressed in transfected cells; host or cells: HEK293T
T4 sequence (Q96RJ0 1-339 C5S): T1 sequence (Q96RJ0 1-339 R83H) with C5S, H83R

[1] = hTA1 V184P mutant minus WT average

Structure (SMILES): CCc1[nH]nc(C(=O)Nc2ccc([C@H]3CNCCO3)cc2)c1C [ralmitaront]
- ΔEmax values (each mutant value - WT average) (hTA1 R83H; R83H mutant minus WT average): -30.9711
- Emax values, Mean (hTA1 R83H; R83H mutant, β-PEA = 100, each line an independent experiment, 3 replicates): 9.143 and -4.118
- Emax (hTA1 R83H; R83H, n=2, read-out: Span ± SEM (Emax normalized to β-PEA)): 2.51 ± 6.63%
- ΔpEC50 values (each mutant value - WT average), Mean (hTA1 T271N; T271N mutant minus WT average, Figure 5B): 0.04727 and -0.1115
- Emax values, Mean (hTA1 T271N; T271N mutant, Figure 5B, β-PEA = 100, each row one independent experiment (3 replicates)): 121.192 and 53.6921
- Emax (hTA1 T271N; n=2, read-out: Span ± SEM (Emax normalized to β-PEA)): 87.4 ± 33.8%
- Emax (hTA1 T271N; relative to β-PEA, read-out: Emax): 87.4%
- reduction in potency vs wild type (hTA1 V184P; V184P): 2.5 fold
- Emax (hTA1 V184P; V184P, n=2, read-out: Span ± SEM (Emax normalized to β-PEA)): 48.73 ± 0.14%
- cAMP accumulation response, single replicate values (source data, Supplementary Figure 5) (hTA1 V184P; M = -5): 56.1002 and 44.9467 and 51.6388 and 50.9599 and 51.6929 and 37.8383
- cAMP accumulation response, single replicate values (source data, Supplementary Figure 5) (hTA1 V184P; M = -5.522): 38.6425 and 44.6557 and 34.0841 and 47.4046 and 55.1382 and 34.8694
- cAMP accumulation response, single replicate values (source data, Supplementary Figure 5) (hTA1 V184P; M = -6): 32.8233 and 40.4853 and 30.6896 and 36.9953 and 42.3832 and 37.3618
- cAMP accumulation response, single replicate values (source data, Supplementary Figure 5) (hTA1 V184P; M = -6.522): 24.4824 and 25.4523 and 22.4457 and 22.8108 and 28.9684 and 21.7112
- cAMP accumulation response, single replicate values (source data, Supplementary Figure 5) (hTA1 V184P; M = -7): 14.7837 and 10.7102 and 14.2987 and 13.3178 and 19.622 and 12.4015
- cAMP accumulation response, single replicate values (source data, Supplementary Figure 5) (hTA1 V184P; M = -7.522): 3.727 and 4.406 and 3.242 and 4.485 and 6.5 and 5.731
- cAMP accumulation response, single replicate values (source data, Supplementary Figure 5) (hTA1 V184P; M = -8): 0.5265 and 1.302 and 1.5934 and 2.432 and 2.322 and 1.296
- cAMP accumulation response, single replicate values (source data, Supplementary Figure 5) (hTA1 V184P; M = -8.522): 0.2356 and -0.3463 and -0.05538 and 1.699 and 1.076 and 0.2329
- cAMP accumulation response, single replicate values (source data, Supplementary Figure 5) (hTA1 V184P; M = -9): 0.3326 and -0.2494 and -1.025 and -0.1703 and -0.2803 and -0.5368
- cAMP accumulation response, single replicate values (source data, Supplementary Figure 5) (hTA1 V184P; M = -9.522): -0.8313 and -0.9283 and -1.316 and -0.5002 and -0.3902 and -0.3169
- cAMP accumulation response, single replicate values (source data, Supplementary Figure 5) (hTA1 V184P; M = -10): -1.122 (2×) and -0.3463 and -0.94 and -0.3902 and -1.3432
- cAMP accumulation response, single replicate values (source data, Supplementary Figure 5) (hTA1 V184P; M = -10.522): -0.9283 and -1.025 and -1.219 and -0.9034 and -1.123 and -1.673
- cAMP accumulation response, single replicate values (source data, Supplementary Figure 5) (hTA1 V184P; M = -11): -0.9283 and -1.607 (2×) and -0.3902 (2×) and -0.1703
- cAMP accumulation response, single replicate values (source data, Supplementary Figure 5) (hTA1 V184P; M = -11.522): -1.607 (2×) and -1.898 and 0.746 and -0.02371 and -0.5002
- cAMP accumulation response, single replicate values (source data, Supplementary Figure 5) (hTA1 V184P; M = -12): -1.607 and -1.219 and -1.51 and -0.6835 and 0.4894 and -0.5735
- cAMP accumulation response, single replicate values (source data, Supplementary Figure 5) (hTA1 V184P; M = -12.522): -0.7343 and -1.4132 and -1.025 and -0.6835 and -0.7568 and -1.087
- ΔEmax values (each mutant value - WT average), Mean (hTA1 V184P; [1]): 8.48 and 8.751
- ΔpEC50 values (each mutant value - WT average), Mean (hTA1 V184P; [1]): -0.4311 and -0.3552
- Emax values, Mean (hTA1 V184P; hTA1 V184P mutant, β-PEA set to 100, each grid row a separate experiment, 3 replicates): 48.8655
- Emax (hTA1 V184P; hTA1 V184P mutant, β-PEA set to 100, each grid row a separate experiment, 3 replicates, read-out: Emax values (Mean)): 48.6%
- Emax (hTA1 C5S; C5S, n=2, read-out: Span ± SEM (Emax normalized to β-PEA)): 53 ± 3.33%
- ΔEmax values (each mutant value - WT average), Mean (hTA1 C5S; hTA1 C5S minus WT average): 16.2371 and 9.571
- ΔpEC50 values (each mutant value - WT average), Mean (hTA1 C5S; hTA1 C5S minus WT average): -0.2888 and -0.07449
- Emax values, Mean (hTA1 C5S; hTA1 C5S, β-PEA = 100, mean of 3 replicates, one line per independent experiment): 49.6851
- Emax (hTA1 C5S; hTA1 C5S, β-PEA = 100, mean of 3 replicates, one line per independent experiment, read-out: Emax values, Mean): 56.4%
- C5S - Normalized Luminescence Counts (N=2) (hTA1 C5S; M = -5): 56.5093 and 57.6833 and 45.4685 and 47.3256 and 58.0276 and 41.5948
- C5S - Normalized Luminescence Counts (N=2) (hTA1 C5S; M = -5.522): 55.6739 and 48.0198 and 44.2267 and 42.3543 and 55.8182 and 41.3187
- C5S - Normalized Luminescence Counts (N=2) (hTA1 C5S; M = -6): 54.1385 and 48.494 and 48.3811 and 37.8664 and 46.5661 and 38.2116
- C5S - Normalized Luminescence Counts (N=2) (hTA1 C5S; M = -6.522): 36.3243 and 27.5639 and 26.277 and 37.3831 and 32.0666 and 36.4855
- C5S - Normalized Luminescence Counts (N=2) (hTA1 C5S; M = -7): 17.0199 and 14.6491 and 16.7715 and 16.6005 and 20.1908 and 19.0861
